Source: PMC9790248, “Effects of CYP3A Inhibition, CYP3A Induction, and Gastric Acid Reduction on the Pharmacokinetics of Ripretinib, a Switch Control KIT Tyrosine Kinase Inhibitor” (Clinical Pharmacology in Drug Development, 2022)

What was measured:
[1] = molecular target: T1, CYP1A2 (Homo sapiens, UniProt P05177); experiment: Incubation with recombinant human CYPs, substrate disappearance; type: in vitro ADME; details: ripretinib 0.1 or 1 μM, data on file
T1 sequence (P05177 1-516): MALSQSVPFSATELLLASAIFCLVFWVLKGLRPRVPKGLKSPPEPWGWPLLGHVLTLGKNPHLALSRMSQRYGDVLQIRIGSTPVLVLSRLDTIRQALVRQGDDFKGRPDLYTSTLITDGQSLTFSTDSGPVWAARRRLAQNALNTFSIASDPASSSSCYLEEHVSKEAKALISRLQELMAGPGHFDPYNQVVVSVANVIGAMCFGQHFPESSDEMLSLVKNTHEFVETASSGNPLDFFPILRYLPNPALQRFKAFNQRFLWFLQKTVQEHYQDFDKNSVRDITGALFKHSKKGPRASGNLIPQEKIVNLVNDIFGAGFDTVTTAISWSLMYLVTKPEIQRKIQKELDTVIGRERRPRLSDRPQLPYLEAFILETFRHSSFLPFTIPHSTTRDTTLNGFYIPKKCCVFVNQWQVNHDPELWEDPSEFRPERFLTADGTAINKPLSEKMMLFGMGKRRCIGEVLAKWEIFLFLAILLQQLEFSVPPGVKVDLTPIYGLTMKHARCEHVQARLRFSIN
Procedure: (§1) In vitro studies with recombinant human cytochrome P450 isoforms (CYPs) and human liver microsomes (with chemical inhibitors) indicate that CYP3A4/5 plays a major role in the metabolism of ripretinib (data on file). When incubated with a panel of recombinant human CYPs, ripretinib (0.1 or 1 μM) disappeared in the presence of CYP3A4 (87.8%–100%), CYP2D6 (97.7%–100%), CYP2C8 (71.2% and 18.9%, respectively), and CYP2C19 (15.7% and 6.7%, respectively).

[2] = molecular target: T2, CYP2B6 (Homo sapiens, UniProt P20813); experiment: as above; type: in vitro ADME; details: ripretinib 0.1 or 1 μM, data on file
T2 sequence (P20813 1-491): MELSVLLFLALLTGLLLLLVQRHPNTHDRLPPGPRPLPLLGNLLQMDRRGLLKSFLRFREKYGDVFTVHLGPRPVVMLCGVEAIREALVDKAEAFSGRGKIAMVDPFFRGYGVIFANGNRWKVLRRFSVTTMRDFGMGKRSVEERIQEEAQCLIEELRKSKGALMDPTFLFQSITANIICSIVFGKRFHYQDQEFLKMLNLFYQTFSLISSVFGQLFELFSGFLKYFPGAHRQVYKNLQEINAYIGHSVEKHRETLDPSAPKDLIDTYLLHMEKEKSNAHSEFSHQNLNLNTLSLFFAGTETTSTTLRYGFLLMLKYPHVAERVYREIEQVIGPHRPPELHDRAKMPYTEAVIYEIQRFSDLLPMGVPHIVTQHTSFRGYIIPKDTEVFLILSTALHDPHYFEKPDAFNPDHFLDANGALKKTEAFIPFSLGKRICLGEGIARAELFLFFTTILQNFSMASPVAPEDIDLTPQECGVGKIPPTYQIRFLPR
Procedure: as §1

[3] = molecular target: T3, CYP2C8 (Homo sapiens, UniProt P10632); experiment: as above; type: in vitro ADME; details: data on file
T3 sequence (P10632 1-490): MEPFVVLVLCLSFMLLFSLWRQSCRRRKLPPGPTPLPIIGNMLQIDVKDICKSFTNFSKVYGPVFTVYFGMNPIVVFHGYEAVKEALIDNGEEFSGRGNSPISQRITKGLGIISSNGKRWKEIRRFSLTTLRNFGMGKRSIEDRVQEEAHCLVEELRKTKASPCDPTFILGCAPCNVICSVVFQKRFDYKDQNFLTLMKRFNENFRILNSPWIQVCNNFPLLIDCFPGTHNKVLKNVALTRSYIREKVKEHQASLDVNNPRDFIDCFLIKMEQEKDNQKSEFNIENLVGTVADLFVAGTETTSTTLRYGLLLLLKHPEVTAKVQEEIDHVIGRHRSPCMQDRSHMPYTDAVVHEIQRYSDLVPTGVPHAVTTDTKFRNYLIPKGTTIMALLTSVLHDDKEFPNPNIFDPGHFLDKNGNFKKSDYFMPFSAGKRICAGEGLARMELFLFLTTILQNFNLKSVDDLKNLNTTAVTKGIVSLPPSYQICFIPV
Procedure: as §1

[4] = molecular target: CYP2C9 (Homo sapiens, UniProt P11712); experiment: as above; type: in vitro ADME; details: ripretinib 0.1 or 1 μM, data on file
Chain of CYP2C9 (P11712 whole entry): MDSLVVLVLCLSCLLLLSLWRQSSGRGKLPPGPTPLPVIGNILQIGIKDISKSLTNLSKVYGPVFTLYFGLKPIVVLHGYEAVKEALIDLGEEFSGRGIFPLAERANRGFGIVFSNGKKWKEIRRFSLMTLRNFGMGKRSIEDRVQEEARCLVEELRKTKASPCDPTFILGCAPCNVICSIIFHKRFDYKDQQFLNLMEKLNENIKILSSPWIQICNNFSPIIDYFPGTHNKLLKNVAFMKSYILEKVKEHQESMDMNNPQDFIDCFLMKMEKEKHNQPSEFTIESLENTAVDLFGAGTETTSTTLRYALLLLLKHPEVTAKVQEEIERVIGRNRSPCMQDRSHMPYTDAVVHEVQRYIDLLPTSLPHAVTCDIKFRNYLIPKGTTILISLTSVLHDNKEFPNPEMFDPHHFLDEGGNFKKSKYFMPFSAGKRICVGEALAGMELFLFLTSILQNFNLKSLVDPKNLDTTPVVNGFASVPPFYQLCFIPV
Procedure: as §1

[5] = molecular target: T4, CYP2D6 (Homo sapiens, UniProt P10635); experiment: as above; type: in vitro ADME; details: ripretinib 0.1 or 1 μM, data on file
T4 construct: with human liver microsomes (0.5 mg protein/mL) for 30 minutes; from tissue; host or cells: human liver microsomes
T4 sequence (P10635 whole entry): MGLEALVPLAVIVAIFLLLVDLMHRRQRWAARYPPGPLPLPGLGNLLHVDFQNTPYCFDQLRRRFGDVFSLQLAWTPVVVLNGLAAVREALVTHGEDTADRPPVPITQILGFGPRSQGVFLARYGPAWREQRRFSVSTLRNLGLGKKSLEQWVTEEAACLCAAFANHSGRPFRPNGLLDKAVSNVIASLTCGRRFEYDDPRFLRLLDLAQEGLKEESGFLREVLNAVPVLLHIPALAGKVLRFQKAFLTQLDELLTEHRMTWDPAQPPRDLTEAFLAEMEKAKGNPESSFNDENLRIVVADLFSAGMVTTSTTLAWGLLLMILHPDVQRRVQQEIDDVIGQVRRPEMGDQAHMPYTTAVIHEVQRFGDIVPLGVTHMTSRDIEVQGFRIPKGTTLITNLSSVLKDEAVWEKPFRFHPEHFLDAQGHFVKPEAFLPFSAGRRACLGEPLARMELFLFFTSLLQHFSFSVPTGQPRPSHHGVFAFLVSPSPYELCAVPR
Procedure: as §1

[6] = Concentration-corrected QT interval analysis; type: in vivo; details: across a range of plasma concentration; data on file
Procedure: In the current study, itraconazole was administered as an oral solution on an empty stomach to ensure the highest oral absorption under fasting conditions and minimize gastrointestinal tract irritation during fasting. […] The tolerability of higher exposure is supported by previous safety and PK data.[7], [10] In a phase 1 study of ripretinib in patients with cancer, the maximum tolerated dose was not reached with doses up to ripretinib 200 mg twice daily.[7] Dose escalation to ripretinib 150 mg twice daily was offered to patients in a phase 1 and phase 3 clinical study after radiologic disease progression on 150 mg once daily.[7], [11] […] Steady‐state PK exposure following ripretinib 150 mg twice daily was approximately 2‐fold higher compared with ripretinib 150 mg once daily.[7], [10] […] However, the exposure–safety relationships were relatively shallow, and most AEs were Grades 1 and 2.

Which results are given for `CCn1c(=O)c(-c2cc(NC(=O)Nc3ccccc3)c(F)cc2Br)cc2cnc(NC)cc21` [Ripretinib]?
Substrate disappearance [1]: less than 7%; Substrate disappearance [2]: less than 7%; Substrate disappearance ([3]; ripretinib 0.1 μM): 71.2%; Substrate disappearance ([3]; ripretinib 1 μM): 18.9%; Substrate disappearance [4]: less than 7%; Substrate disappearance [5]: 97.7%–100%; Concentration-corrected QT interval analysis [6]: did not suggest particular concern
